Where “and” joins values, the source holds several entries; their conditions need not be identical. Equal entries are not always repeated.
Assays:
[1] = system: intestinal transit of carbon; experiment: Anti-spastic activity, vegetable carbon intestinal transit test; format: in vivo, mice; conditions: Mus musculus, ip; read-out: antispastic activity ED50 (dose reducing intestinal transit of carbon by 50%)
Description: The anti-spastic activity which the present compounds exert on the entire digestive system is also notable. Measured in mice with the vegetable carbon test (rate of transit through the stomach and the intestine), this activity is illustrated in the following table.
claimed administered intraperitoneally in mice. Values
expressed as the ED 50 in mg/kg, that is the dose which
reduces the intestinal transit of carbon by 50%

[2] = system: endogenous opiates analgesia; experiment: Analgesic activity of endogenous opiates released by transcutaneous shock, Tail Flick Test (Experiment 3); format: in vivo, rats
Procedure, shortened: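 Non-fasted male rats (~200 g) stressed with 60 Hz-2.5 mA front-leg current, 1 s pulses every 5 s for 20 min, to release endogenous opiates. Analgesia measured by tail flick test.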

[3] = system: CCK-8 induced contraction of guinea pig gall bladder; experiment: Anti-CCK-8 activity on gall bladders in situ; format: in vivo
[4] = system: enkephalinamide (DALA) analgesia; experiment: Potentiation of DALA (enkephalinamide) analgesia, i.c.v., Tail Flick Test (Experiment 4); format: in vivo, rats; parameters: scale not given here; conditions: DALA 10 + compound 0.01 mg/kg (ICV), 0.01 mg/kg
Description: Experiment No. 4: Potentiation of the analgesic activities of enkephalins induced by some of the compounds of the invention. […]

morphine analgesia = experiment: Increase in analgesia of morphine, Tail Flick Test (Experiment 1); format: in vivo, rats
Procedure, shortened: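 Tail-flick latency to 75 °C radiant heat, capped at 8 s, measured in male non-fasted rats weighing 150-200 g. Percentage change per animal derived from pre-treatment baseline versus post-drug readings at 10-90 min (10, 20, 30, 45, 60, 90 min).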

[5] = system: CCK-8 induced contraction of guinea pig gall bladder; experiment: Anti-CCK activity on gall bladder strips in vitro; conditions: CCK-8 10 ng/ml
Procedure, shortened: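 CCK-8 at 10 ng/ml drove isometric contraction of guinea pig gall bladder strips held at 32 °C in oxygenated Krebs (O2/CO2 95:5). Antagonism was measured at graded compound concentrations and reported as ED50, in μg/ml, for 50% inhibition of the contraction.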

[6] = system: tolerance induced by morphine; experiment: Antagonism to development of tolerance to repeated morphine HCl, Tail Flick Test (Experiment 5); conditions: compound 10 mg/kg + morphine 5 mg/kg i.p.
Description: Experiment No. 5: Antagonism of several products of the invention to the development of tolerance induced in rats by the repeated administration of morphine HCl.
Several of the compounds of the invention were examined to determine their possible capacity to antagonise the development of tolerance induced by morphine. Groups of 6 male rats having a weight of about 200-250 grams were used.
At intervals of 24 hours from the first treatment (time 0) each animal (except the control group treated physiologically) received 5 mg/kg of morphine hydrochloride i.p. together with 10 mg/kg i.p. of the compounds indicated (with the exception of the group treated solely with morphine).
The determination of the pain threshold was effected 15', 30', 45' and 60' from the treatment by the Tail Flick Test.

biliary flow = experiment: Biliary flow (choleretic activity); format: in vivo, rat
Procedure, shortened: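 In urethane-anaesthetised rats with bile duct cannulated, bile collected 1 h before and 2 h after intravenous compound dosing. Samples weighed at 30 minute intervals; 0.5 ml physiological solution given every 30 minutes to prevent dehydration.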

CCCN(CCC)C(=O)C(CCC(=O)O)NC(=O)c1ccc(C)c(C)c1 (stereo not shown) [Compound C-30]
ED50 [1]: 77.7 mg/kg
average latency, Tail Flick ([2]; compound 1 mg/kg iv + stress, 5'): 7.26 ± 0.52 s
average latency, Tail Flick ([2]; compound 1 mg/kg iv + stress, 10'): 6.10 ± 0.49 s
average latency, Tail Flick ([2]; compound 1 mg/kg iv + stress, 15'): 4.68 ± 0.5 s
average latency, Tail Flick ([2]; compound 3 mg/kg iv + stress, 5'): 9.46 ± 0.64 s
average latency, Tail Flick ([2]; compound 3 mg/kg iv + stress, 10'): 7.96 ± 0.61 s
average latency, Tail Flick ([2]; compound 3 mg/kg iv + stress, 15'): 6.82 ± 0.78 s
percentage inhibition of contracting effect of CCK-8 ([3]; 30 mg/kg i.v., single experiments): 82.1% and 92.5% and 79.5%
ED50 ([3]; Cavia porcellus, iv, CCK-8 10 ng/kg i.v., read-out: ED50 (inhibition of 50% of contracting effect of CCK-8)): 13.8 mg/kg
analgesic activity, Tail Flick ([4]; 10'): 58 and 59.1
analgesic activity, Tail Flick ([4]; 20'): 60.8 and 67.8
analgesic activity, Tail Flick ([4]; 30'): 77.0 and 86.0
analgesic activity, Tail Flick ([4]; 45'): 66.4 and 83.3
analgesic activity, Tail Flick ([4]; 60'): 48.8 and 83.3
analgesic activity, Tail Flick ([4]; 90'): 45.0 and 55.1
MEAN analgesic activity, Tail Flick ([4]; mean): 59.33 and 73.26
percentage variation of latency of pain sensation (morphine analgesia; 10', compound 10 mg/kg i.p. + morphine 2 mg/kg): 69.9 ± 16%
percentage variation of latency of pain sensation (morphine analgesia; 20', compound 10 mg/kg i.p. + morphine 2 mg/kg): 100.0 ± 0%
percentage variation of latency of pain sensation (morphine analgesia; 30', compound 10 mg/kg i.p. + morphine 2 mg/kg): 95.2 ± 4.8%
percentage variation of latency of pain sensation (morphine analgesia; 45', compound 10 mg/kg i.p. + morphine 2 mg/kg): 91.8 ± 8%
percentage variation of latency of pain sensation (morphine analgesia; 60', compound 10 mg/kg i.p. + morphine 2 mg/kg): 100%
percentage variation of latency of pain sensation (morphine analgesia; 90', compound 10 mg/kg i.p. + morphine 2 mg/kg): 100.0 ± 0%
M (10-90) ± SE, mean percentage variation of latency (morphine analgesia; mean 10-90 min, compound 10 mg/kg i.p. + morphine 2 mg/kg): 92.8 ± 12%
Power ratio with respect to morphine alone (morphine analgesia; rat, in vivo): 3.11
ED50 (concentration antagonising 50% of contracting effect of CCK-8) [5]: 33.5 µg/mL
percentage variation in latency time (Effect %) ([6]; 24 h): 66.53% and 67.27%
percentage variation in latency time (Effect %) ([6]; 48 h): 50.61% and 67.31%
percentage variation in latency time (Effect %) ([6]; 72 h): 47.53% and 56.04%
percentage variation in latency time (Effect %) ([6]; 96 h): 29.65% and 49.48%
percentage variation in latency time (Effect %) ([6]; 120 h): 34.24% and 34.34%
percentage variation in latency time (Effect %) ([6]; 144 h): 26.97% and 27.50%
percentage variation in latency time (Effect %) ([6]; time 0): 74.51% and 44.52%
% increase in biliary flow with respect to controls (biliary flow; 12.5 mg/kg i.v.): +33.7%
% increase in biliary flow with respect to controls (biliary flow; 25 mg/kg i.v.): +60.2%
% increase in biliary flow with respect to controls (biliary flow; 50 mg/kg i.v.): +121.2%
% increase in biliary flow with respect to controls (biliary flow; 100 mg/kg i.v.): +197.8%
ED50 (biliary flow; Rattus norvegicus, iv, average over 2 hours, read-out: ED50 (dose causing 50% increase in biliary flow)): 18.5 mg/kg
